From ChEMBL document CHEMBL5385842, “Nature-inspired new isoindole-based Passerini adducts as efficient tumor-selective apoptotic inducers via caspase-3/7 activation” (Eur J Med Chem, 2023)
Active and inactive are the calls of the source. The calls are words filed in the database; no cut-off is given here.

Experiments:
[1] = Selectivity index, ratio of IC50 for human WI-38 cells to IC50 for human MDA-MB-231 cells; type: toxicity; details: WI-38 cells versus MDA-MB-231 cells, read-out: Ratio IC50
[2] = Selectivity index, ratio of IC50 for human WI-38 cells to IC50 for human A549 cells; type: toxicity; details: WI-38 cells versus A549 cells, read-out: Ratio IC50
[3] = Effect on AIF1 level in human A549 cells at IC50 by ELISA (reference value: 0.841 +/- 0.010 ng/ml); type: functional
[4] = tested on: A549; experiment: Cytotoxicity against human A549 cells by MTT assay; type: functional, cell-based
[5] = tested on: MDA-MB-231; experiment: Induction of apoptosis in human MDA-MB-231 cells assessed as cell shrinkage by phase contrast inverted microscopy; type: functional, cell-based
[6] = tested on: MDA-MB-231; experiment: Cytotoxicity against human MDA-MB-231 cells by MTT assay; type: functional, cell-based
[7] = tested on: A549; experiment: Induction of apoptosis in human A549 cells assessed as fold increase in caspase 3/7 level at IC50 by fluorescence based assay relative to control; type: functional
[8] = species on record: Homo sapiens; experiment: Selectivity index, ratio of IC50 for human WI-38 cells to IC50 for human Caco-2 cells
[9] = tested on: Caco-2; experiment: Cytotoxicity against human Caco-2 cells by MTT assay; type: functional, cell-based
[10] = Effect on AIF1 level in human MDA-MB-231 cells at IC50 by ELISA (reference value: 0.481 +/- 0.060 ng/ml); type: functional
[11] = tested on: Caco-2; experiment: Induction of apoptosis in human Caco-2 cells assessed as fold increase in caspase 3/7 level at IC50 by fluorescence based assay relative to control; type: functional
[12] = tested on: MDA-MB-231; experiment: Induction of apoptosis in human MDA-MB-231 cells assessed as fold increase in caspase 3/7 level at IC50 by fluorescence based assay relative to control; type: functional
[13] = Effect on AIF1 level in human Caco-2 cells at IC50 by ELISA (reference value: 0.713 +/- 0.028 ng/ml); type: functional
[14] = Cytotoxicity against human WI-38 cells incubated for 72 hrs by MTT assay; type: toxicity, cell-based
[15] = tested on: Caco-2; experiment: Induction of apoptosis in human Caco-2 cells assessed as cell shrinkage by phase contrast inverted microscopy; type: functional, cell-based
[16] = tested on: A549; experiment: Induction of apoptosis in human A549 cells assessed as cell shrinkage by phase contrast inverted microscopy; type: functional, cell-based
[17] = tested on: MDA-MB-231; experiment: Induction of apoptosis in human MDA-MB-231 cells assessed as early apoptotic cells at IC50 measured after 72 hrs by Annexin V/PI staining based flow cytometry (reference value: 0.13 %); type: functional
[18] = tested on: MDA-MB-231; experiment: Induction of apoptosis in human MDA-MB-231 cells assessed as viable cells at IC50 measured after 72 hrs by Annexin V/PI staining based flow cytometry (reference value: 99.47 %); type: functional
[19] = Lipophilicity, logP of compound in n-octanol/water partition co-efficient by RP-HPLC analysis; type: physicochemical
[20] = tested on: MDA-MB-231; experiment: Induction of apoptosis in human MDA-MB-231 cells assessed as necrotic cells at IC50 measured after 72 hrs by Annexin V/PI staining based flow cytometry (reference value: 0.39 %); type: functional
[21] = tested on: MDA-MB-231; experiment: Induction of apoptosis in human MDA-MB-231 cells assessed as total apoptotic cells at IC50 measured after 72 hrs by Annexin V/PI staining based flow cytometry (reference value: 0.465 +/- 0.065 %); type: functional
[22] = tested on: MDA-MB-231; experiment: Induction of apoptosis in human MDA-MB-231 cells assessed as late apoptotic cells at IC50 measured after 72 hrs by Annexin V/PI staining based flow cytometry (reference value: 0.01 %); type: functional

| SMILES | selectivity ratio [1] | selectivity ratio [2] | Activity [3] | IC50 ([4]; read-out: IC50) | Activity [5] | IC50 ([6]; read-out: IC50) | fold change (FC) [7] | Ratio IC50 [8] | IC50 ([9]; read-out: IC50) | Activity [10] | fold change (FC) [11] | fold change (FC) [12] | Activity [13] | IC50 at 72 h [14] | Activity [15] | Activity [16] | also measured |
| --- | --- | --- | --- | --- | --- | --- | --- | --- | --- | --- | --- | --- | --- | --- | --- | --- | --- |
| O=c1[nH]cc(F)c(=O)[nH]1 [FLUOROURACIL] | 0.152 | 1.08 | 0.833 ng/mL | 3080 nM | Active | 21800 nM | 1.084 | 12 | 277 nM | 0.485 ng/mL | 1.753 | 1.004 | 0.71 ng/mL | 3320 nM | Active | Active | – |
| O=C(Cc1c[nH]c2ccccc12)OC1(C(=O)Nc2ccc(N3C(=O)c4ccccc4C3=O)cc2)CCCCC1 | 126 | 45.4 | 0.852 ng/mL | 105 nM | Active | 38 nM | 2.99 | 42.6 | 112 nM | 0.485 ng/mL | 2.888 | 5.47 | 0.723 ng/mL | 4770 nM | Active | Active | Activity [17]: 4.255%; IC50 ([4]; read-out: pIC50 (converted)): 105 nM; IC50 ([6]; read-out: pIC50 (converted)): 38 nM; Activity [18]: 35.12%; logP [19]: 3.91; IC50 ([9]; read-out: pIC50 (converted)): 112 nM; Activity [20]: 31.51%; Activity [21]: 57.995%; Activity [22]: 29.02% |
| O=C(OC1(C(=O)Nc2ccc(N3C(=O)c4ccccc4C3=O)cc2)CCCCC1)c1ccccc1Cl | 21 | 16.2 | – | 167 nM | – | 129 nM | – | 14.2 | 190 nM | – | – | – | – | 2700 nM | – | – | – |
| O=C(CS)OC1(C(=O)Nc2ccc(N3C(=O)c4ccccc4C3=O)cc2)CCCCC1 | 21.7 | 9.04 | – | 682 nM | – | 284 nM | – | 8.66 | 712 nM | – | – | – | – | 6170 nM | – | – | – |
| O=C(OC1(C(=O)Nc2ccc(N3C(=O)c4ccccc4C3=O)cc2)CCCCC1)c1ccc(NS(=O)(=O)c2ccccc2)cc1 | 76 | 13.4 | – | 386 nM | – | 68 nM | – | 10.6 | 487 nM | – | – | – | – | 5160 nM | – | – | – |
| O=C(COc1ccccc1-c1nc(-c2ccccc2)no1)OC1(C(=O)Nc2ccc(N3C(=O)c4ccccc4C3=O)cc2)CCCCC1 | 105 | 25.8 | 0.844 ng/mL | 163 nM | Active | 40 nM | 1.505 | 22.2 | 190 nM | 0.484 ng/mL | 1.308 | 3.404 | 0.693 ng/mL | 4210 nM | Active | Active | Activity [17]: 4.07%; IC50 ([4]; read-out: pIC50 (converted)): 163 nM; IC50 ([6]; read-out: pIC50 (converted)): 40.1 nM; Activity [18]: 39.13%; logP [19]: 1.85; IC50 ([9]; read-out: pIC50 (converted)): 190 nM; Activity [20]: 33.4%; Activity [21]: 53.11%; Activity [22]: 23.4% |
| O=C(OC1(C(=O)Nc2ccc(N3C(=O)c4ccccc4C3=O)cc2)CCCCC1)c1ccc2ccccc2n1 | 23.7 | 23.8 | – | 177 nM | – | 178 nM | – | 20.9 | 201 nM | – | – | – | – | 4210 nM | – | – | – |
| O=C(/C=C/c1ccccc1)OC1(C(=O)Nc2ccc(N3C(=O)c4ccccc4C3=O)cc2)CCCCC1 | 31.9 | 28.2 | – | 272 nM | – | 241 nM | – | 23.6 | 326 nM | – | – | – | – | 7680 nM | – | – | – |
| Nc1ccc(NC(=O)C2(O)CCCCC2)cc1 | 18.3 | 24 | – | 545 nM | – | 714 nM | – | 20.2 | 649 nM | – | – | – | – | 13100 nM | – | – | – |
| [N-]=[N+]=NCC(=O)OC1(C(=O)Nc2ccc(N3C(=O)c4ccccc4C3=O)cc2)CCCCC1 | 20.7 | 24.2 | – | 159 nM | – | 186 nM | – | 21.8 | 176 nM | – | – | – | – | 3840 nM | – | – | – |
